Key:
[1] = system: ECHOR; assay: Example II: in-water applied weed control, transplanted paddy rice, greenhouse; type: in vivo, Echinochloa oryzoides (Ard.) Fritsch (early watergrass); details: 100 gai/ha
Description: (§1) Weed seeds or nutlets of the desired test plant species were planted in puddled soil (mud) prepared by mixing a shredded, non-sterilized mineral soil (50.5 percent silt, 25.5 percent clay, and 24 percent sand, with a pH of about 7.6 and an organic matter content of about 2.9 percent) and water at a 1:1 volumetric ratio. The prepared mud was dispensed in 365 mL aliquots into 16-ounce (oz.) non-perforated plastic pots with a surface area of 86.59 square centimeters (cm^2) leaving a headspace of 3 centimeters (cm) in each pot. Mud was allowed to dry overnight prior to planting or transplanting. Rice seeds were planted in Sun Gro MetroMix® 306 planting mixture, which typically has a pH of 6.0 to 6.8 and an organic matter content of about 30 percent, in plastic plug trays. Seedlings at the second or third leaf stage of growth were transplanted into 840 mL of mud contained in 32-oz. non-perforated plastic pots with a surface area of 86.59 cm^2 4 days prior to herbicide application. The paddy was created by filling the headspace of the pots with 2.5 to 3 cm of water. When required to ensure good germination and healthy plants, a fungicide treatment and/or other chemical or physical treatment was applied. The plants were grown for 4-22 days in a greenhouse with an approximate 14 hr photoperiod which was maintained at about 29′C during the day and 26° C. during the night. Nutrients were added as Osmocote® (19:6:12, N:P:K+ minor nutrients) at 2 g per 16-oz. pot and 4 g per 32-oz. pot. Water was added on a regular basis to maintain the paddy flood, and supplemental lighting was provided with overhead metal halide 1000-Watt lamps as necessary. The plants were employed for testing when they reached the first through fourth true leaf stage.
(§2) Treatments consisted of the acid or esters of 4-amino-3-chloro-5-fluoro-6-(4-chloro-2-fluoro-3-methoxy-phenyl)pyridine-2-carboxylic acid (compound A) each formulated as an SC (suspension concentrate) and various herbicidal components alone and in combination. Forms of compound A were applied on an acid equivalent basis.
(§3) The herbicidal components were applied on an active ingredient basis and included very long chain fatty acid (VLCFA) synthesis-inhibiting and fatty acid/lipid synthesis-inhibiting herbicides acetochlor (technical grade material), acetochlor+dichlormid formulateded as Topnotch®, pretilachlor (technical grade material), butachlor formulated as Butachlor EC, fentrazamide formulated as Fentrazamide EC, thiobencarb formulated as Bolero® 8EC, cafenstrole formulated as Himeadow® WP or Lapost® Flowable, benfuresate formulated as Full Shot®, anilofos (technical grade material), mefenacet (technical grade material), molinate (technical grade material), and thenylchlor (technical grade material).
(§4) Treatment requirements for each compound or herbicidal component were calculated based upon the rates being tested, the concentration of active ingredient or acid equivalent in the formulation, an application volume of 2 mL per component per pot, and an application area of 86.59 cm^2 per pot.
(§5) For formulated compounds, a measured amount was placed in an individual 100 or 200 mL glass vial and was dissolved in a volume of 1.25% (v/v) Agri-Dex® crop oil concentrate to obtain application solutions.
(§6) For technical grade compounds, a weighed amount was placed in an individual 100 to 200 mL glass vial and was dissolved in a volume of acetone to obtain concentrated stock solutions. […] The concentrated stock solutions obtained were diluted with an equivalent volume of an aqueous mixture containing 2.5% (v/v) crop oil concentrate so that the final application solutions contained 1.25% (v/v) crop oil concentrate.
(§7) Applications were made by injecting with a pipetter appropriate amounts of the application solutions, individually and sequentially, into the aqueous layer of the paddy. Control plants were treated in the same manner with the solvent blank. […]

[2] = system: ECHCG; assay: Example I: postemergence foliar-applied weed control, greenhouse; type: in vivo, Echinochloa crus-galli (L.) Beauv. (barnyardgrass); details: 20 DAA
Excerpt: (§8) Seeds or nutlets of the desired test plant species were planted in a soil matrix prepared by mixing a loam or sandy loam soil (e.g., 28.6 percent silt, 18.8 percent clay, and 52.6 percent sand, with a pH of about 5.8 and an organic matter content of about 1.8 percent) and calcareous grit in an 80 to 20 ratio. The soil matrix was contained in plastic pots with a volume of 1 quart and a surface area of 83.6 square centimeters (cm^2). When required to ensure good germination and healthy plants, a fungicide treatment and/or other chemical or physical treatment was applied. The plants were grown for 8-22 days in a greenhouse with an approximate 14 hr photoperiod which was maintained at about 29° C. during the day and 26° C. during the night. Nutrients (Peters Excel® 15-5-15 5-Ca 2-Mg and iron chelate) were applied in the irrigation solution as needed and water was added on a regular basis. Supplemental lighting was provided with overhead metal halide 1000-Watt lamps as necessary. The plants were employed for testing when they reached the first through fourth true leaf stage.
as §2, with “(Compound A),” for “(compound A)”, “concentrate),” for “concentrate)”
(§9) Other herbicidal components were applied on an active ingredient basis and included very long chain fatty acid (VLCFA) synthesis-inhibiting and fatty acid/lipid synthesis-inhibiting herbicides acetochlor (technical grade material), acetochlor+dichlormid formulated as Topnotch®, pretilachlor (technical grade material), butachlor formulated as Butachlor EC, fentrazamide formulated as Fentrazamide EC, thiobencarb formulated as Bolero® 8EC, cafenstrole formulated as Himeadow® WP or Lapost® Flowable, benfuresate formulated as Full Shot®, dimethenamid-P formulated as Outlook®, indanofan (technical grade material), flufenacet formulated as Define® DF, mefenacet (technical grade material), S-metolachlor formulated as Dual® II Magnum, pethoxamid formulated as Successor® 600, and pyroxasulfone (technical grade material).
(§10) Treatment requirements were calculated based upon the rates being tested, the concentration of active ingredient or acid equivalent in the formulation, and a 12 mL application volume at a rate of 187 L/ha.
(§11) For treatments comprised of formulated compounds, measured amounts of compounds were placed individually in 25 mL glass vials and diluted in a volume of 1.25% (v/v) Agri-Dex® crop oil concentrated to obtain 12× stock solutions. […] Application solutions were prepared by adding an appropriate amount of each stock solution (e.g., 1 mL) and diluted to the appropriate final concentrations with the addition of 10 mL of an aqueous mixture of 1.25% (v/v) crop oil concentrate so that the final spray solutions contained 1.25+/−0.05% (v/v) crop oil concentrate.
(§12) For treatments comprised of technical compounds, weighed amounts can be placed individually in 25 mL glass vials and dissolved in a volume of 97:3 v/v acetone/DMSO to obtain 12× stock solutions. […] Application solutions can be prepared by adding an appropriate amount of each stock solution (e.g., 1 mL) and diluted to the appropriate final concentrations with the addition of 10 mL of an aqueous mixture of 1.5% (v/v) crop oil concentrate so that the final spray solutions contain 1.25% (v/v) crop oil concentrate. When technical materials are used, the concentrated stock solutions can be added to the spray solutions so that the final acetone and DMSO concentrations of the application solutions are […], respectively. […]

[3] = system: ECHCG; assay: Example II: in-water applied weed control, transplanted paddy rice, greenhouse; type: in vivo, Echinochloa crus-galli (L.) Beauv. (barnyardgrass); details: 100 gai/ha
Description: as §1, §2, §3, §4, §5, §6, §7

[4] = system: CYPRO; assay: as above; type: in vivo, Cyperus rotundus L. (purple nutsedge)
Description: as §1, §2, §3, §4, §5, §6, §7

[5] = system: BRAPP; assay: Example I: postemergence foliar-applied weed control, direct seeded rice weeds, greenhouse; type: in vivo; details: 20 DAA
Excerpt: as §8
as §2, with “(Compound A),” for “(compound A)”, “concentrate),” for “concentrate)”
as §9, §10, §11, §12

[6] = system: DIGSA; assay: Example I: postemergence foliar-applied weed control, greenhouse; type: in vivo, Digitaria sanguinalis (L.) Scop. (large crabgrass); details: 20 DAA
Excerpt: as §8
as §2, with “(Compound A),” for “(compound A)”, “concentrate),” for “concentrate)”
as §9, §10, §11, §12

[7] = system: FIMMI; assay: Example II: in-water applied weed control, transplanted paddy rice, greenhouse; type: in vivo, Fimbristylis miliacea (L.) Vahl (globe fringerush)
Description: as §1, §2, §3, §4, §5, §6, §7

[8] = system: IPOHE; assay: Example IV: pre-emergence soil-applied weed control, greenhouse; type: in vivo, Ipomoea hederacea Jacq. (ivyleaf morningglory); details: 27 DAA
Excerpt: Seeds or nutlets of the desired test plant species were planted in a soil matrix prepared by mixing a loam soil (32 percent silt, 23 percent clay, and 45 percent sand, with a pH of about 6.5 and an organic matter content of about 1.9 percent) and calcareous grit in an 80 to 20 ratio. The soil matrix was contained in plastic pots with a volume of 1 quart and a surface area of 83.6 square centimeters (cm^2).
as §2, with “benzyl ester” for “acid or esters”, “A)” for “A) each”
Other herbicidal components were applied on an active ingredient basis and included very long chain fatty acid (VLCFA) synthesis-inhibiting and fatty acid/lipid synthesis-inhibiting herbicides alachlor (technical grade material), dimethenamid-P formulated as Outlook®, and S-metolachlor formulated as Dual® II Magnum.
as §10
as §11, with “oil concentrate (COC)” for “oil concentrated”, “(v/v) COC” for “(v/v) crop oil concentrate”, “contained 1.25%” for “contained 1.25+/−0.05%”, “(v/v) COC.” for “(v/v) crop oil concentrate.”
For treatments comprised of technical compounds, weighed amounts can be placed individually in 25 mL glass vials and dissolved in a volume of 97:3 (v/v) acetone/DMSO to obtain 12× stock solutions. […] Application solutions can be prepared by adding an appropriate amount of each stock solution (e.g., 1 mL) and diluted to the appropriate final concentrations with the addition of 10 mL of an aqueous mixture of 1.5% (v/v) COC so that the final spray solutions contain 1.25% (v/v) COC. When technical materials are used, the concentrated stock solutions can be added to the spray solutions so that the final acetone and DMSO concentrations of the application solutions are 16.2% and 0.5%, respectively.
For treatments comprised of formulated and technical compounds, weighed amounts of the technical materials were placed individually in 25 mL glass vials and dissolved in a volume of 97:3 (v/v) acetone/DMSO to obtain 12× stock solutions, and measured amounts of the formulated compounds were placed individually in 25 mL glass vials and diluted in a volume of 1.5% (v/v) COC or water to obtain 12× stock solutions. […] Application solutions were prepared by adding an appropriate amount of each stock solution (e.g., 1 mL) and diluted to the appropriate final concentrations with the addition of an appropriate amount of an aqueous mixture of 1.5% (v/v) COC so that the final spray solutions contained 1.25% (v/v) COC. As required, additional water and/or 97:3 (v/v) acetone/DMSO was added to individual application solutions so that the final acetone and DMSO concentrations of the application solutions being compared were 8.1% and 0.25%, respectively.
All stock solutions and applications solutions were visually inspected for compound compatibility prior to application. Spray solutions were applied to the soil with an overhead Mandel track sprayer equipped with a 8002E nozzles calibrated to deliver 187 L/ha over an application area of 0.503 m^2 at a spray height of 18 inches (46 cm) above average pot height. Control pots were sprayed in the same manner with the solvent blank.
The treated and control pots were placed in a greenhouse and top watered as needed. […]

Row | Compound | Visual Weed Control (%) - 20 DAA ECHOR Obs [1] | Visual Weed Control Obs ([2]; 50 gai/ha) | Visual Weed Control Obs ([2]; 100 gai/ha) | Visual Weed Control (%) - 22 DAA ECHCG Obs [3] | Visual Weed Control (%) - 20 DAA CYPRO Obs ([4]; 100 gai/ha) | Visual Weed Control (%) - 20 DAA CYPRO Obs ([4]; 200 gai/ha) | Visual Weed Control Obs ([5]; 100 gai/ha) | Visual Weed Control Obs ([5]; 200 gai/ha) | Visual Weed Control Obs ([6]; 100 gai/ha) | Visual Weed Control Obs ([6]; 200 gai/ha) | Visual Weed Control (%) - 20 DAA FIMMI Obs ([7]; 100 gai/ha) | Visual Weed Control (%) - 20 DAA FIMMI Obs ([7]; 200 gai/ha) | Visual Weed Control IPOHE Obs ([8]; 1240 gai/ha) | Visual Weed Control IPOHE Obs ([8]; 2480 gai/ha)
1 | CCOCN(C(=O)CCl)c1c(C)cccc1CC [Acetochlor, 2-chloro-N-(ethoxymethyl)-N-(2-ethyl-6-methylphenyl)acetamide] | 80% | 0% | 10% | 65% | 20% | 75% | 20% | 30% | 20% | 20% | 80% | 20% |  | 
2 | CCc1cccc(CC)c1N(COC)C(=O)CCl [Alachlor, 2-chloro-N-(2,6-diethylphenyl)-N-(methoxymethyl)acetamide] |  |  |  |  |  |  |  |  |  |  |  |  | 5% | 13%

— patent US20130310256A1, “HERBICIDAL COMPOSITIONS COMPRISING 4-AMINO-3-CHLORO-5-FLUORO-6-(4-CHLORO-2-FLUORO-3-METHOXYPHENYL) PYRIDINE-2-CARBOXYLIC ACID OR A DERIVATIVE THEREOF AND VLCFA AND LIPID SYNTHESIS INHIBITING HERBICIDES” (DOW AGROSCIENCES LLC, priority 2008, published 2013)
